According to PubChem BioAssay AID328 (DTP/NCI, 2004):
“And” between values parts separate entries of the source, which are not always exact repeats. Equal entries are not always repeated. Inconclusive results and toxic doses are left out. The calls were made as follows: active = survival T/C of 150% or more; inactive = T/C below 125% in these data.

Tested on: BDF1 mice, P388 leukemia ip, median survival T/C
Test: NCI In Vivo Anticancer Drug Screen. Data for tumor model P388 Leukemia (intraperitoneal) in B6D2F1 (BDF1) mice
Conditions: endpoint: median survival time, higher = longer survival
Summary of the method: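 Transplantable tumour in mice; compound vs vehicle dosing; survival scored; ratio of treated to control reported.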

[1] = dose: 100.0 mg/kg/injection, schedule: Q01DX009 (ip), vehicle: saline
[2] = dose: 200.0 mg/kg/injection, schedule: Q01DX009 (ip), vehicle: saline
[3] = dose: 400.0 mg/kg/injection, schedule: Q01DX009 (ip), vehicle: saline
[4] = dose: 25.0 mg/kg/injection, schedule: Q01DX009 (ip), vehicle: saline with Tween-80
[5] = dose: 50.0 mg/kg/injection, schedule: Q01DX009 (ip), vehicle: saline with Tween-80
[6] = dose: 100.0 mg/kg/injection, schedule: Q01DX009 (ip), vehicle: saline with Tween-80
[7] = dose: 200.0 mg/kg/injection, schedule: Q01DX009 (ip), vehicle: saline with Tween-80
[8] = dose: 100.0 mg/kg/injection, schedule: Q04DX003 (ip), vehicle: saline with Tween-80
[9] = dose: 200.0 mg/kg/injection, schedule: Q04DX003 (ip), vehicle: saline with Tween-80
[10] = dose: 400.0 mg/kg/injection, schedule: Q01DX009 (ip), vehicle: saline with Tween-80
[11] = dose: 400.0 mg/kg/injection, schedule: Q04DX003 (ip), vehicle: saline with Tween-80
[12] = dose: 25.0 mg/kg/injection, schedule: Q04DX003 (ip), vehicle: saline with Tween-80
[13] = dose: 50.0 mg/kg/injection, schedule: Q04DX003 (ip), vehicle: saline with Tween-80

Measured: T/C

N=C(N)c1ccc(Nc2ccc(C(=N)N)cc2)cc1
inactive: dose: 3.0 mg/kg/injection, schedule: Q01DX010 (ip), vehicle: saline 100 % of control | dose: 6.0 mg/kg/injection, schedule: Q01DX010 (ip), vehicle: saline 91 % of control and 95 % of control | dose: 12.0 mg/kg/injection, schedule: Q01DX010 (ip), vehicle: saline 91 % of control and 100 % of control | dose: 24.0 mg/kg/injection, schedule: Q01DX010 (ip), vehicle: saline 95 % of control

O=C(OCCO)c1ccccc1O
inactive: [1] 107 % of control | [2] 115 % of control | [3] 100 % of control

CC1(C)OC2C(CO)OC(n3cnc4c(N)ncnc43)C2O1 (centres undefined)
inactive: dose: 75.0 mg/kg/injection, schedule: Q04DX003 (ip), vehicle: Klucel (hydroxypropylcellulose) (HPC) 100 % of control | dose: 300.0 mg/kg/injection, schedule: Q04DX003 (ip), vehicle: Klucel (hydroxypropylcellulose) (HPC) 100 % of control

C=CCN1CSC(=S)N(CC=C)C1
inactive: [4] 100 % of control | [5] 87 % of control

OC(C1CCCCC1)(C1CCCCC1)C1CCCCC1
inactive: dose: 100.0 mg/kg/injection, schedule: Q01DX009 (ip), vehicle: other 104 % of control | dose: 100.0 mg/kg/injection, schedule: Q04DX003 (ip), vehicle: Klucel (hydroxypropylcellulose) (HPC) 91 % of control | dose: 200.0 mg/kg/injection, schedule: Q01DX009 (ip), vehicle: other 100 % of control | dose: 200.0 mg/kg/injection, schedule: Q04DX003 (ip), vehicle: Klucel (hydroxypropylcellulose) (HPC) 100 % of control | dose: 400.0 mg/kg/injection, schedule: Q01DX009 (ip), vehicle: other 109 % of control | dose: 400.0 mg/kg/injection, schedule: Q04DX003 (ip), vehicle: Klucel (hydroxypropylcellulose) (HPC) 91 % of control

CC(C)=CCC/C(C)=C\C=N\NS(=O)(=O)c1ccc([N+](=O)[O-])cc1
inactive: dose: 6.25 mg/kg/injection, schedule: Q01DX009 (ip), vehicle: saline with Tween-80 99 % of control | dose: 12.5 mg/kg/injection, schedule: Q01DX009 (ip), vehicle: saline with Tween-80 103 % of control | [4] 103 % of control

CS(=O)CC(O)(c1ccccc1)c1cccs1 (centres undefined)
inactive: [5] 100 % of control | [6] 93 % of control | [7] 100 % of control

C(=C\c1ccccc1)/CSc1ncnc2nc[nH]c12
inactive: [6] 104 % of control | [8] 90 % of control | [7] 104 % of control | [9] 104 % of control | [10] 100 % of control | [11] 100 % of control

O=C1C(Cl)=C(Cl)C(=O)C2CC=CCC12 (centres undefined)
inactive: dose: 3.13 mg/kg/injection, schedule: Q01DX001 (ip), vehicle: saline with Tween-80 95 % of control | dose: 6.25 mg/kg/injection, schedule: Q01DX001 (ip), vehicle: saline with Tween-80 114 % of control

O=C(/C=C(/c1ccccc1)P(=O)(c1ccccc1)c1ccccc1)c1ccccc1
inactive: [6] 100 % of control | [7] 95 % of control | [10] 100 % of control

C=C1C(=O)OC2C=C(C)C3C(O)CC(C)(O)C3CC12 (centres undefined)
inactive: dose: 100.0 mg/kg/injection, schedule: Q01DX009 (ip), vehicle: Klucel (hydroxypropylcellulose) (HPC) 114 % of control | dose: 200.0 mg/kg/injection, schedule: Q01DX009 (ip), vehicle: Klucel (hydroxypropylcellulose) (HPC) 102 % of control

O=C(O)c1ccc(-c2ccc(C(=O)O)cc2I)c(I)c1
inactive: [5] 100 % of control | [6] 96 % of control | [8] 100 % of control | [7] 96 % of control | [9] 100 % of control | [11] 95 % of control

COC(=O)Cc1[nH]ccc1C(=O)OC
inactive: dose: 100.0 mg/kg/injection, schedule: Q01DX001 (ip), vehicle: saline with Tween-80 103 % of control | dose: 200.0 mg/kg/injection, schedule: Q01DX001 (ip), vehicle: saline with Tween-80 109 % of control | dose: 400.0 mg/kg/injection, schedule: Q01DX001 (ip), vehicle: saline with Tween-80 120 % of control

FC(F)(F)c1ccc2c(c1)N(CCCN(CCCl)CCCl)c1ccccc1S2
inactive: dose: 3.1 mg/kg/injection, schedule: Q04DX003 (ip), vehicle: saline with Tween-80 112 % of control | dose: 6.25 mg/kg/injection, schedule: Q04DX003 (ip), vehicle: saline with Tween-80 122 % of control | [12] 119 % of control

CNC(=O)C(C)(C)Br
inactive: dose: 200.0 mg/kg/injection, schedule: Q04DX003 (ip), vehicle: saline 100 % of control | dose: 400.0 mg/kg/injection, schedule: Q04DX003 (ip), vehicle: saline 90 % of control

CCCCCCCCC(=O)N(C)OC
inactive: [12] 104 % of control | [13] 100 % of control | [8] 100 % of control

CC1(C)OC(COCCOCCOCCCO)C(COCCOCCOCCCO)O1 (centres undefined)
inactive: dose: 100.0 mg/kg/injection, schedule: Q01DX001 (ip), vehicle: saline 112 % of control | dose: 100.0 mg/kg/injection, schedule: Q01DX001 (ip), vehicle: suspension in saline 100 % of control | dose: 200.0 mg/kg/injection, schedule: Q01DX001 (ip), vehicle: saline 111 % of control | dose: 200.0 mg/kg/injection, schedule: Q01DX001 (ip), vehicle: suspension in saline 98 % of control | dose: 400.0 mg/kg/injection, schedule: Q01DX001 (ip), vehicle: suspension in saline 120 % of control | dose: 800.0 mg/kg/injection, schedule: Q01DX001 (ip), vehicle: suspension in saline 100 % of control

CCCNCC(O)c1cc(C(F)(F)F)nc2c(C(F)(F)F)cccc12 (centres undefined)
inactive: [5] 115 % of control | [6] 104 % of control

c1cc[c]([Sn]([c]2ccccc2)([c]2ccccc2)[n]2cnc3ccccc32)cc1
inactive: dose: 0.1 mg/kg/injection, schedule: Q01DX009 (ip), vehicle: Klucel (hydroxypropylcellulose) (HPC) 90 % of control | dose: 0.21 mg/kg/injection, schedule: Q01DX009 (ip), vehicle: Klucel (hydroxypropylcellulose) (HPC) 90 % of control | dose: 0.43 mg/kg/injection, schedule: Q01DX009 (ip), vehicle: Klucel (hydroxypropylcellulose) (HPC) 90 % of control | dose: 0.87 mg/kg/injection, schedule: Q01DX009 (ip), vehicle: Klucel (hydroxypropylcellulose) (HPC) 90 % of control | dose: 7.0 mg/kg/injection, schedule: Q01DX009 (ip), vehicle: Klucel (hydroxypropylcellulose) (HPC) 115 % of control | dose: 18.0 mg/kg/injection, schedule: Q04DX003 (ip), vehicle: Klucel (hydroxypropylcellulose) (HPC) 100 % of control | dose: 28.0 mg/kg/injection, schedule: Q04DX003 (ip), vehicle: Klucel (hydroxypropylcellulose) (HPC) 86 % of control

C[NH-].C[NH-].O=C(O)C(=O)O.[Pt+2]
inactive: dose: 100.0 mg/kg/injection, schedule: Q04DX003 (ip), vehicle: other 90 % of control
active: dose: 2.0 mg/kg/injection, schedule: Q04DX003 (ip), vehicle: other 158 % of control | dose: 3.0 mg/kg/injection, schedule: Q04DX003 (ip), vehicle: other 200 % of control | dose: 4.4 mg/kg/injection, schedule: Q04DX003 (ip), vehicle: other 154 % of control | dose: 4.5 mg/kg/injection, schedule: Q04DX003 (ip), vehicle: other 166 % of control | dose: 6.7 mg/kg/injection, schedule: Q04DX003 (ip), vehicle: other 186 % of control | dose: 10.0 mg/kg/injection, schedule: Q04DX003 (ip), vehicle: other 190 % of control | dose: 10.5 mg/kg/injection, schedule: Q04DX003 (ip), vehicle: other 170 % of control | dose: 12.5 mg/kg/injection, schedule: Q04DX003 (ip), vehicle: other 208 % of control | dose: 16.0 mg/kg/injection, schedule: Q04DX003 (ip), vehicle: other 208 % of control | dose: 25.0 mg/kg/injection, schedule: Q04DX003 (ip), vehicle: other 250 % of control and 254 % of control and 183 % of control

COC(=O)C(C)(OC)OC
inactive: [1] 100 % of control | [2] 100 % of control | [3] 100 % of control

NC(=O)NC(C(=O)O)(c1ccccc1)C1CCC1 (centres undefined)
inactive: [13] 99 % of control | [8] 91 % of control | [9] 95 % of control | [11] 95 % of control

CCCCCn1cnc2c(=S)nc[nH]c21
inactive: [6] 90 % of control | [7] 104 % of control | [10] 90 % of control

CCOP(=S)(N1CC1C)N1CC1C (centres undefined)
active: dose: 100.0 mg/kg/injection, schedule: Q01DX007 (ip), vehicle: saline with Tween-80 163 % of control | dose: 150.0 mg/kg/injection, schedule: Q01DX007 (ip), vehicle: saline with Tween-80 159 % of control
inactive: dose: 66.0 mg/kg/injection, schedule: Q04DX003 (ip), vehicle: saline with Tween-80 116 % of control | [8] 112 % of control | dose: 150.0 mg/kg/injection, schedule: Q04DX003 (ip), vehicle: saline with Tween-80 120 % of control
